The record followed here is patent US9562035B2, “Benzamide derivative useful as FASN inhibitors for the treatment of cancer” (Janssen Pharmaceutica NV, priority 2013, dated 2017).

Some results are limits rather than exact numbers.

In test [1] the target is T1, hFASN enzyme (full length) (Homo sapiens, UniProt P49327).
T1 construct: 10 μL hFASN enzyme (full length, 300 ng, purified in house); made in house
Briefly: Fatty Acid Synthase (FASN) Inhibition Scintillation Proximity Assay. Format: biochemical. Conditions: read-out: FASN % Effect @1E−05M. In outline: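 Eight compound concentrations (0.01–30 μM) tested in pH 7.5 phosphate buffer with DTT; human full-length enzyme converted [3H]-acetyl-CoA plus malonyl-CoA, with NADPH, over 60 min at room temperature. Hydrophobic [3H]-palmitate detected by bead proximity scintillation imaging; control-normalised data fitted for IC50/pIC50.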

For test [2], the system named is A2780 ovarian cells. The experiment in a line: A2780 Ovarian Cell Proliferation Assay in Lipid Reduced Medium, without Palmitate. Format: cell-based. Conditions: Homo sapiens, A2780; lipid reduced medium, without palmitate, 96 h, MTT; read-out: Proliferation A2780 w/o Palmitate pIC50 (converted). In outline:
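A2780 cells were seeded in 10% FCS medium and switched next day to 10% lipid-reduced serum without palmitate. Compounds at 0.01–30 μM were added with 0.2% DMSO, 0.2% fatty-acid-free BSA and 0.25% ethanol final. After 96 h, MTT absorbance at 544 nm was normalized to plate controls, and IC50/pIC50 came from a 4-parameter logistic fit.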

Test [3] deals with A2780 ovarian cells. The experiment in a line: A2780 Ovarian Cell Proliferation Assay in Lipid Reduced Medium, with Palmitate (control). Format: cell-based. Particulars: Homo sapiens, A2780; lipid reduced medium, 25 μM palmitate, 96 h, MTT; read-out: Proliferation A2780 with Palmitate pIC50 (converted). In outline: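 Read-out was MTT absorbance at 544 nm after 96 h at 37 °C. Cells grown overnight in RPMI1640/10% FCS were moved to 10% lipid-reduced serum with compound plus palmitate (final 25 μM, 0.2% fatty-acid-free BSA, 0.2% DMSO). IC50 came from least-squares curve fitting, expressed as −log(IC50).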

Test [4] has as its system LNCaP_Vancouver prostate cells. The experiment in a line: In Vitro LNCaP Vancouver Prostate Cell Proliferation Assay in Lipid Reduced Medium. Particulars: lipid reduced serum, 96 h, read-out: Vancouver Cells pIC50 (converted). Format: cell-based. Here is the method: LNCaP_Vancouver prostate cells were obtained from the Vancouver Prostate Cancer Centre. Cells were maintained in RPMI-1640, 10% Fetal Calf Serum (FCS, Hyclone), 2 mM glutamine and 50 μg/ml Gentamicin.
For the proliferation experiment 1500 LNCaP_Vancouver cells per well were seeded in a 384-well black with clear bottom plate (costar 3712BC) in 40 μl RPMI-1640, 10% Lipid reduced serum (LRS, Hyclone), 50 μg/ml Gentamicin and 2 mM Glutamine and incubated at 37° C., 5% CO2. The next day 10 μl of test compound/DMSO diluted in medium was added (3E-5M, 1E-5M, 3E-6M, 1E-6M, 3E-7M, 1E-7M, 3E-8M, 1E-8M final concentration). Compounds were tested in duplicate. After 96 h incubation at 37° C., 5% CO2 25 μl ATP-glow mix was added. The plate was incubated for 30 min at 37° C. and luminescence was measured with the Envision.
(§1) pIC50 values were calculated as follows. Raw data generated by the instruments were normalized to % Controlmin values, which were calculated as: % Controlmin=100*(x−mLC)/(mHC−mLC),
(§2) where mLC and mHC are the means of the low control wells and high control wells on the plate, after manual exclusion of outliers. The relation between the % Controlmin values and concentration was fitted to a 4-parameter logistic curve using a non-linear least squares regression method to determine the pIC50 value. Outlying data points were excluded manually to get a correct fit. The pIC50 corresponds to −log 10(IC50), if the IC50 is expressed in molar units (http://www.ncbi.nlm.nih.gov/books/NBK91994). The IC50 parameter was always determined by non-linear regression, but one or more of the other parameters may have been held fixed on a relevant input value, such as 0 for the bottom values.
(§3) For dose response curves with FASN inhibitors in LNCaP_Vancouver or PC-3M-Luc_C6 cells the curves bottom out around 30 to 40% of the control value. A standard fit PL2, forcing the lower bound to this level was used.
(§4) Representative compounds of the present invention were tested according to the procedure as described in Biological Example 4a and 4b above, with results as listed in Table BIO-4, below.

In test [5] the test system is PC-3M-Luc-C6 prostate cells. The experiment in a line: In Vitro PC-3M-Luc-C6 Prostate Cell Proliferation Assay in Lipid Reduced Medium. Format: cell-based. Particulars: read-out: PC-3M-Luc-C6 Cells pIC50 (μM) (converted), lipid reduced serum, 96 h. Here is the method: PC-3M-Luc-C6 prostate cells were obtained from Xenogen Corporation. Cells were maintained in MEM supplemented with 10% Fetal Calf Serum (FCS, Hyclone), 2 mM glutamine, 1 mM sodium pyruvate, 1% BME vitamins (available from for example, Sigma Aldrich), 0.1 mM non Essential Amino Acid and 50 μg/ml Gentamicin. The cells were passaged twice a week.
1000 PC-3M-Luc-C6 prostate cells (Xenogen) were seeded in a 384-well black with clear bottom plate (costar 3712BC) in 40 μl MEM, 10% LRS (Hyclo ne), 50 μg/ml Gentamicin, 2 mM Glutamine, 1 mM Sodium pyruvaat, 1% BME vitamins and 0.1 mM non Essential Amino Acid and incubated at 37° C., 5% CO2. The next day 10 μl test compound/DMSO diluted in medium was added (3E-5M, 1E-5M, 3E-6M, 1E-6M, 3E-7M, 1E-7M, 3E-8M, 1E-8M final concentration). Compounds were tested in duplicate. After 96 h incubation at 37° C., 5% CO2 25 μl ATP-glow mix was added. The plate was incubated for 30 min at 37° C. and luminescence was measured with the Envision.
as §1, §2, §3, §4

T1 sequence (P49327 whole entry): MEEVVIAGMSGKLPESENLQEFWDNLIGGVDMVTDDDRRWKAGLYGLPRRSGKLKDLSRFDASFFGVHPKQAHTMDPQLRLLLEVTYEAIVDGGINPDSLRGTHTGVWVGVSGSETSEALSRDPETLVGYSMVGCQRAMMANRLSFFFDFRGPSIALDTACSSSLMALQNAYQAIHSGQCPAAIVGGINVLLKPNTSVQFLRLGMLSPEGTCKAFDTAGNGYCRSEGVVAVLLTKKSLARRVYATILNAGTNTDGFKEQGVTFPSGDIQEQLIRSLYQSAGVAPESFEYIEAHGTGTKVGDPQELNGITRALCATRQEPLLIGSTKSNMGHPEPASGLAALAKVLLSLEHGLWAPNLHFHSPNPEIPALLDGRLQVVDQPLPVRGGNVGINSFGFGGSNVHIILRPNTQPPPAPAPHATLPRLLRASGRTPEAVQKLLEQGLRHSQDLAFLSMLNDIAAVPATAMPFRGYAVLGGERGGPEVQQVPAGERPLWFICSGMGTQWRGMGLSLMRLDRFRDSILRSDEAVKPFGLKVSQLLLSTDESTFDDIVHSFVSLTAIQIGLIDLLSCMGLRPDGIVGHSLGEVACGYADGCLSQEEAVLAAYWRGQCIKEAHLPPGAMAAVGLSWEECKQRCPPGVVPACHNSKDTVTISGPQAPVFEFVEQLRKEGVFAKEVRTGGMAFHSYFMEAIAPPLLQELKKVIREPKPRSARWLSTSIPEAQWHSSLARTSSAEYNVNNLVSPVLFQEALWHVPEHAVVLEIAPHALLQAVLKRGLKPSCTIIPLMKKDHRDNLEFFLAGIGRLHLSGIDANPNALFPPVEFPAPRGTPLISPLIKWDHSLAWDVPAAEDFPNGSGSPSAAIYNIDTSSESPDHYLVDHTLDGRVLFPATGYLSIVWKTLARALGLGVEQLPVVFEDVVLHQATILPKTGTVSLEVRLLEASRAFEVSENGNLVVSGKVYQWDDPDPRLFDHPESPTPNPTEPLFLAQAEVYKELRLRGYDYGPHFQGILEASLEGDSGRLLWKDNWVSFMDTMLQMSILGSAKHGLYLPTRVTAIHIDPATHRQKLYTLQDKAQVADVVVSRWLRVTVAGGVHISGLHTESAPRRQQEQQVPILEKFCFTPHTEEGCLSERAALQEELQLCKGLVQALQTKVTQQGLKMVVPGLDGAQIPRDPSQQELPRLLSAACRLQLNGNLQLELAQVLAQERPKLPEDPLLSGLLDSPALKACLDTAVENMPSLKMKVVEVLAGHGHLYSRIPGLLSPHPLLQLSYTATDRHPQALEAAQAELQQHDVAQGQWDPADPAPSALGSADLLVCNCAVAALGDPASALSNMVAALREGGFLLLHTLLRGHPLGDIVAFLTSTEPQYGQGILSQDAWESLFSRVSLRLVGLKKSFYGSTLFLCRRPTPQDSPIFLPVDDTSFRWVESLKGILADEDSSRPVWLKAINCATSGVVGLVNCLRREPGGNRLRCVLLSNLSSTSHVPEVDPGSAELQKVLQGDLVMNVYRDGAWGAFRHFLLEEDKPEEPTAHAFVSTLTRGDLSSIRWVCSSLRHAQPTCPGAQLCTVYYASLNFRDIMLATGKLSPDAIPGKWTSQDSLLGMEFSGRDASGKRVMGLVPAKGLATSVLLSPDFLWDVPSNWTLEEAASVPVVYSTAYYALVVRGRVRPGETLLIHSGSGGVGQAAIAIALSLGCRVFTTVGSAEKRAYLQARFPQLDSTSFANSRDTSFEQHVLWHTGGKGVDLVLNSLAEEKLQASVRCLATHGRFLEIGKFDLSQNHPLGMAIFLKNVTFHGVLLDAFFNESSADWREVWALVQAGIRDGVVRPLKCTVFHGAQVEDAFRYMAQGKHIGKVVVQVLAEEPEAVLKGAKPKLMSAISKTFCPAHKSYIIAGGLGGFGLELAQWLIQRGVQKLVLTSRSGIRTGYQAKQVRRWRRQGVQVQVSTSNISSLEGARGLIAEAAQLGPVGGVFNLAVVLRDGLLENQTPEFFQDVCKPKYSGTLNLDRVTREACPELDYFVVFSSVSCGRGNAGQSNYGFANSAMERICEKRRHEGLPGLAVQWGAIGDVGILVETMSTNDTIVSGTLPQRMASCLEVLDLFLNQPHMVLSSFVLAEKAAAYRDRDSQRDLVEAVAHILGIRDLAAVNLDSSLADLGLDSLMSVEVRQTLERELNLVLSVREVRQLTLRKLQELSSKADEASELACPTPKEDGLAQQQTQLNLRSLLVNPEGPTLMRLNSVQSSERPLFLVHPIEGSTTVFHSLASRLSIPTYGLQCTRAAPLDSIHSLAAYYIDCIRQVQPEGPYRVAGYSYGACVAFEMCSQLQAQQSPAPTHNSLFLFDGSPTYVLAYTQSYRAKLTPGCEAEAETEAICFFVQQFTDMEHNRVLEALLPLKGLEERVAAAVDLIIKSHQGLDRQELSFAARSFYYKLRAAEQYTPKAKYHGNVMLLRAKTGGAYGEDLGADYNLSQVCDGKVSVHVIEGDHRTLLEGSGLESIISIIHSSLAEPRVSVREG

Take `CN(C)c1ccc(C(=O)N2CCC(c3ccc(-c4cnn(C)c4)cc3)CC2)cc1NC(=O)C1CC1` [Compound #273, N-(2-(dimethylamino)-5-(4-(4-(1-methyl-1H-pyrazol-4-yl)phenyl)piperidine-1-carbonyl)phenyl)cyclopropanecarboxamide]: the inhibition at 10 µM in test [1] was 98%. Moreover, the IC50 with A2780 ovarian cells [2] was 182 nM; in the test with A2780 ovarian cells [3], over 10000 nM; in test [4] it was 2190 nM; in test [5], 0.269 µM.
